Patent publication US6872690B2, “Herbicidal 2-alkynyl-pyri (mi) dines” (WYETH, priority 2001, dated 2005)

Key:
Assay type in all cases: in vivo
Galium aparine = assay: Pre-emergence test; settings: 0.400 kg/ha, 3 weeks after treatment
In short: (§1)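 Seeds sown in horticultural loam; compound in acetone containing 0.4% wetting agent, then diluted in water; formulation sprayed onto the soil surface at 900 L/ha; rates of 0.013, 0.025, 0.100 and 0.400 kg/ha; pots rated after 2–4 weeks against untreated controls.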

Abutilon theophrasti [1] = assay: Pre-emergence test; settings: 0.400 kg/ha, 3 weeks after treatment
In short: as §1

Ipomoea hederacea [2] = assay: Pre-emergence test; settings: 0.400 kg/ha, 3 weeks after treatment
In short: as §1

Echinochloa crus-galli [3] = assay: Pre-emergence test; settings: 0.400 kg/ha, 3 weeks after treatment
In short: as §1

Cassia obtusifolia = assay: Pre-emergence test; settings: 0.400 kg/ha, 3 weeks after treatment
In short: as §1

Digitaria sanguinalis = assay: Pre-emergence test; settings: 0.400 kg/ha, 3 weeks after treatment
In short: as §1

Ambrosia artemisifolia [4] = assay: Pre-emergence test; settings: 0.400 kg/ha, 3 weeks after treatment
In short: as §1

Zea mays [5] = assay: Pre-emergence test; settings: 0.400 kg/ha, 3 weeks after treatment
In short: as §1

Lamium purpureum = assay: Pre-emergence test; settings: 0.400 kg/ha, 3 weeks after treatment
In short: as §1

Stellaria media = assay: Pre-emergence test; settings: 0.400 kg/ha, 3 weeks after treatment
In short: as §1

Alopecurus myosuroides [6] = assay: Pre-emergence test; settings: 0.400 kg/ha, 3 weeks after treatment
In short: as §1

Setaria viridis [7] = assay: Pre-emergence test; settings: 0.400 kg/ha, 3 weeks after treatment
In short: as §1

Glycine max [8] = assay: Pre-emergence test; settings: 0.400 kg/ha, 3 weeks after treatment
In short: as §1

Matricaria inodora [9] = assay: Pre-emergence test; settings: 0.400 kg/ha, 3 weeks after treatment
In short: as §1

Triticum aestivum [10] = assay: Pre-emergence test; settings: 0.400 kg/ha, 3 weeks after treatment
In short: as §1

Orysa sativa = assay: Pre-emergence test; settings: 0.400 kg/ha, 3 weeks after treatment
In short: as §1

Abutilon theophrasti [11] = assay: Post-emergence herbicidal activity test; settings: 0.200 kg/ha, 2-4 weeks after treatment
In short: (§2)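 Sprayed post-emergence at about 0.025 to 0.4 kg per hectare per pot, using water-diluted acetone solutions, then assessed by visual rating after 2 to 4 weeks in the greenhouse.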

Ipomoea hederacea [12] = assay: Post-emergence herbicidal activity test; settings: 0.200 kg/ha, 2-4 weeks after treatment
In short: as §2

Echinochloa crus-galli [13] = assay: Post-emergence herbicidal activity test; settings: 0.200 kg/ha, 2-4 weeks after treatment
In short: as §2

Ambrosia artemisifolia [14] = assay: Post-emergence herbicidal activity test; settings: 0.200 kg/ha, 2-4 weeks after treatment
In short: as §2

Zea mays [15] = assay: Post-emergence herbicidal activity test; settings: 0.200 kg/ha, 2-4 weeks after treatment
In short: as §2

Alopecurus myosuroides [16] = assay: Post-emergence herbicidal activity test; settings: 0.200 kg/ha, 2-4 weeks after treatment
In short: as §2

Setaria viridis [17] = assay: Post-emergence herbicidal activity test; settings: 0.200 kg/ha, 2-4 weeks after treatment
In short: as §2

Glycine max [18] = assay: Post-emergence herbicidal activity test; settings: 0.200 kg/ha, 2-4 weeks after treatment
In short: as §2

Matricaria inodora [19] = assay: Post-emergence herbicidal activity test; settings: 0.200 kg/ha, 2-4 weeks after treatment
In short: as §2

Triticum aestivum [20] = assay: Post-emergence herbicidal activity test; settings: 0.200 kg/ha, 2-4 weeks after treatment
In short: as §2

## Cc1cc(C#C[Si](C)(C)C)nc(Oc2cc(C(F)(F)F)nn2C)c1 [Example 14]
Galium aparine
  Assessment (pre-emergence application) GALAP: 1 (1-Trace effect)
Abutilon theophrasti [1]
  Assessment (pre-emergence application) ABUTH: 0 (0-No effect)
Ipomoea hederacea [2]
  Assessment (pre-emergence application) IPOHE: 1 (1-Trace effect)
Echinochloa crus-galli [3]
  Assessment (pre-emergence application) ECHCG: 5 (5-Definite injury)
Cassia obtusifolia
  Assessment (pre-emergence application) CASOB: 3 (3-Moderate effect)
Digitaria sanguinalis
  Assessment (pre-emergence application) DIGSA: 9 (9-Complete kill)
Ambrosia artemisifolia [4]
  Assessment (pre-emergence application) MBEL: 9 (9-Complete kill)
Zea mays [5]
  Assessment (pre-emergence application) ZEAMX: 1 (1-Trace effect)
Lamium purpureum
  Assessment (pre-emergence application) LAMPU: 9 (9-Complete kill)
Stellaria media
  Assessment (pre-emergence application) STEME: 9 (9-Complete kill)
Alopecurus myosuroides [6]
  Assessment (pre-emergence application) ALOMY: 7 (7-Good herbicidal effect)
Setaria viridis [7]
  Assessment (pre-emergence application) SETVI: 5 (5-Definite injury)
Glycine max [8]
  Assessment (pre-emergence application) GLXMA: 2 (2-Slight effect)
Matricaria inodora [9]
  Assessment (pre-emergence application) MATIN: 8 (8-Approaching complete kill)
Triticum aestivum [10]
  Assessment (pre-emergence application) TRZWA: 1 (1-Trace effect)
Orysa sativa
  Assessment (pre-emergence application) ORYSA: 0 (0-No effect)
Abutilon theophrasti [11]
  Post-emergence application ABUTH: 1 (1-Trace effect)
Ipomoea hederacea [12]
  Post-emergence application IPOHE: 8 (8-Approaching complete kill)
Echinochloa crus-galli [13]
  Post-emergence application ECHCG: 1 (1-Trace effect)
Ambrosia artemisifolia [14]
  Post-emergence application AMBEL: 3 (3-Moderate effect)
Zea mays [15]
  Post-emergence application ZEAMX: 1 (1-Trace effect)
Alopecurus myosuroides [16]
  Post-emergence application ALOMY: 3 (3-Moderate effect)
Setaria viridis [17]
  Post-emergence application SETVI: 3 (3-Moderate effect)
Glycine max [18]
  Post-emergence application GLXMA: 4 (4-Injury)
Matricaria inodora [19]
  Post-emergence application MATIN: 5 (5-Definite injury)
Triticum aestivum [20]
  Post-emergence application TRZWA: 1 (1-Trace effect)
